Assay results from patent US20230407243A1, “GENETIC PLATFORM TO INVESTIGATE THE FUNCTIONS OF BACTERIAL DRUG EFFLUX PUMPS” (priority 2022, published 2023).
Where two headings read alike, the source gives them in different places.

Key:
Type in all cases: cell-based, Escherichia coli
[1] = test system: EKO-35 araC::acrBD408A Pore; experiment: MIC susceptibility profiling, porinated efflux platform; details: for Fold changes of MICs: EKO-35 araC::acrBD408A Pore compared to EKO-35-Pore; for MIC: Escherichia coli, EKO-35 araC::acrBD408A Pore, technical duplicate, read-out: Minimum inhibitory concentration
Summary of the method: (§1)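 Strains carry the fhuA ΔC/Δ4L pore integrated between glmS and pstS under a constitutive promoter, with pore activity checked by vancomycin susceptibility. Overnight LB cultures were adjusted in PBS pH 7.4 to OD600 ~1.0 and diluted 1/2000 into MHB II. 2-fold compound titrations were read by OD600 after 18 h at 37 °C.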

EKO-35 araC::acrD Pore = experiment: as above; details: for Fold changes of MICs: EKO-35 araC::acrD Pore compared to EKO-35-Pore
Summary of the method: as §1

EKO-35 araC::emrKY Pore = experiment: as above; details: for Fold changes of MICs: EKO-35 araC::emrKY Pore compared to EKO-35-Pore
Summary of the method: as §1

EKO-35-Pore = experiment: MIC susceptibility profiling, porinated strain; details: for Fold changes of MICs: EKO-35-Pore compared to EKO-35-Pore (reference); for MIC: Escherichia coli, technical duplicate
Summary of the method: as §1

EKO-35 araC::emrAB = experiment: MIC susceptibility profiling, efflux platform; details: for Fold change of MICs: EKO-35 araC::emrAB compared to EKO-35; for MIC: Escherichia coli, Table 13B, non-porinated, technical duplicate, read-out: Minimum Inhibitory Concentration, EKO-35 araC::emrAB
Summary of the method: (§2)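 MHB II broth microdilution; inoculum from 18 h LB culture, PBS-adjusted to OD600 ~1.0, then 1/2000 dilution. Compounds 2-fold titrated, duplicates, DMSO solvent control. 18 h, 37 °C, 900 rpm; background-corrected OD600 end point.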

EKO-35 araC::mdtEF = experiment: MIC susceptibility profiling, efflux platform; details: for Fold change of MICs: EKO-35 araC::mdtEF compared to EKO-35; for MIC: Escherichia coli, Table 13A, non-porinated, technical duplicate, read-out: Minimum Inhibitory Concentration, EKO-35 araC::mdtEF
Summary of the method: as §2

EKO-35 araC::acrEF = experiment: MIC susceptibility profiling, efflux platform; details: for Fold change of MICs: EKO-35 araC::acrEF compared to EKO-35; for MIC: Escherichia coli, Table 13A, non-porinated, technical duplicate, read-out: Minimum Inhibitory Concentration, EKO-35 araC::acrEF
Summary of the method: as §2

EKO-35 araC::mdtBC = experiment: MIC susceptibility profiling, efflux platform; details: for Fold change of MICs: EKO-35 araC::mdtBC compared to EKO-35; for MIC: Escherichia coli, Table 13B, non-porinated, technical duplicate, read-out: Minimum Inhibitory Concentration, EKO-35 araC::mdtBC
Summary of the method: as §2

EKO-35 araC::macAB = experiment: MIC susceptibility profiling, efflux platform; details: for Fold change of MICs: EKO-35 araC::macAB compared to EKO-35; for MIC: Escherichia coli, Table 13B, non-porinated, technical duplicate, read-out: Minimum Inhibitory Concentration, EKO-35 araC::macAB
Summary of the method: as §2

[2] = test system: EKO-35 araC::mexCD (MexCD from P. aeruginosa); experiment: MIC susceptibility profiling, efflux platform; details: for Fold change of MICs: EKO-35 araC::mexCD compared to EKO-35; for MIC: Table 13B, non-porinated, technical duplicate, read-out: Minimum Inhibitory Concentration, EKO-35 araC::mexCD
Summary of the method: as §2

EKO-35 araC::emrKY = experiment: MIC susceptibility profiling, efflux platform; details: for Fold change of MICs: EKO-35 araC::emrKY compared to EKO-35; for MIC: Escherichia coli, Table 13B, non-porinated, technical duplicate, read-out: Minimum Inhibitory Concentration, EKO-35 araC::emrKY
Summary of the method: as §2

EKO-35 araC::acrBD408A = experiment: MIC susceptibility profiling, efflux platform; details: for Fold change of MICs: EKO-35 araC::acrBD408A compared to EKO-35; for MIC: Escherichia coli, Table 13B, non-porinated, technical duplicate, read-out: Minimum Inhibitory Concentration, EKO-35 araC::acrBD408A
Summary of the method: as §2

EKO-35 araC::acrB = experiment: MIC susceptibility profiling, efflux platform; details: for Fold change of MICs: EKO-35 araC::acrB compared to EKO-35; for MIC: Escherichia coli, Table 13A, non-porinated, technical duplicate, read-out: Minimum Inhibitory Concentration, EKO-35 araC::acrB
Summary of the method: as §2

EKO-35 araC::acrD = experiment: MIC susceptibility profiling, efflux platform; details: for Fold change of MICs: EKO-35 araC::acrD compared to EKO-35; for MIC: Escherichia coli, Table 13A, non-porinated, technical duplicate, read-out: Minimum Inhibitory Concentration, EKO-35 araC::acrD
Summary of the method: as §2

wild-type (WT) K-12-Pore = experiment: microbe, parasite or virus in culture; details: Escherichia coli
Summary of the method: as §1

ΔtolC-Pore = experiment: microbe, parasite or virus in culture; details: for MIC: Escherichia coli, 18 h, read-out: Minimum inhibitory concentration, ΔtolC-Pore; for Minimum inhibitory concentration (MIC), Pore ΔtolC: Table 10, with pore, technical duplicate
Summary of the method: as §1

E. coli ΔtolC = experiment: microbe, parasite or virus in culture; details: for MIC: Escherichia coli, 18 h, read-out: Minimum Inhibitory Concentration, ΔtolC; for Minimum inhibitory concentration (MIC), ΔtolC: Table 10, without pore, technical duplicate
Summary of the method: as §2

[3] = test system: wild-type E. coli K-12 str. BW25113; experiment: microbe, parasite or virus in culture; details: Escherichia coli
Summary of the method: as §2

E. coli EKO-35 = experiment: microbe, parasite or virus in culture; details: for Fold change of MICs: EKO-35 compared to EKO-35 (reference); for MIC: Escherichia coli
Summary of the method: as §2

[4] = Table 10, with pore, read-out: Minimum inhibitory concentration (MIC), Pore EKO-35
[5] = Table 14A, porinated, read-out: Minimum inhibitory concentration, EKO-35-Pore
[6] = Table 10, with pore, technical duplicate, read-out: Minimum inhibitory concentration (MIC), Pore K-12
[7] = Table 14A, porinated, technical duplicate, read-out: Minimum inhibitory concentration, K-12 (WT)-Pore
[8] = BW25113, Table 10, without pore, technical duplicate, read-out: Minimum inhibitory concentration (MIC), K-12
[9] = BW25113, Table 13A, non-porinated, technical duplicate, read-out: Minimum Inhibitory Concentration, K-12
[10] = EKO35, Table 10, without pore, technical duplicate, read-out: Minimum inhibitory concentration (MIC), EKO-35
[11] = EKO35, Table 13A, non-porinated, technical duplicate, read-out: Minimum Inhibitory Concentration, EKO-35

Compound | Fold changes of MICs [1] [fold] | Fold changes of MICs (EKO-35 araC::acrD Pore) [fold] | Fold changes of MICs (EKO-35 araC::emrKY Pore) [fold] | Fold changes of MICs (EKO-35-Pore) [fold] | Fold change of MICs (EKO-35 araC::emrAB) [fold] | Fold change of MICs (EKO-35 araC::mdtEF) [fold] | Fold change of MICs (EKO-35 araC::acrEF) [fold] | MIC (EKO-35 araC::acrEF) [µg/mL] | Fold change of MICs (EKO-35 araC::mdtBC) [fold] | Fold change of MICs (EKO-35 araC::macAB) [fold] | Fold change of MICs [2] [fold] | MIC [2] [µg/mL] | Fold change of MICs (EKO-35 araC::emrKY) [fold] | Fold change of MICs (EKO-35 araC::acrBD408A) [fold] | MIC (EKO-35 araC::acrBD408A) [µg/mL] | Fold change of MICs (EKO-35 araC::acrB) [fold] | Fold change of MICs (EKO-35 araC::acrD) [fold] | MIC (ΔtolC-Pore) [µg/mL] | Minimum inhibitory concentration (MIC), Pore ΔtolC (ΔtolC-Pore) [µg/mL] | MIC (E. coli ΔtolC) [µg/mL] | other results
CN(C)[C@@H]1C(O)=C(C(N)=O)C(=O)[C@@]2(O)C(O)=C3C(=O)c4c(O)cccc4[C@@](C)(O)[C@H]3C[C@@H]12 [tetracycline] | 1 | 1 | 1 | 1 | 1 | 1 | 1 | 0.195 | 1 | 1 | 1 | 0.195 | 1 | 1 | 0.195 | 4 | 1 | 0.391 | 0.391 | 0.391 | MIC [1]: 0.195 µg/mL; MIC (EKO-35 araC::acrD Pore; Escherichia coli, Table 14A, porinated, technical duplicate, read-out: Minimum inhibitory concentration, EKO-35 araC::acrD Pore): 0.195 µg/mL; MIC (EKO-35 araC::emrKY Pore; Escherichia coli, EKO-35 araC::emrKY Pore, technical duplicate, read-out: Minimum inhibitory concentration): 0.195 µg/mL; MIC (EKO-35-Pore; [4]): 0.195 µg/mL; MIC (EKO-35-Pore; [5]): 0.195 µg/mL; MIC (EKO-35 araC::emrAB): 0.195 µg/mL; MIC (EKO-35 araC::mdtEF): 0.195 µg/mL; MIC (EKO-35 araC::mdtBC): 0.195 µg/mL; MIC (EKO-35 araC::macAB): 0.195 µg/mL; MIC (EKO-35 araC::emrKY): 0.195 µg/mL; MIC (EKO-35 araC::acrD): 0.195 µg/mL; MIC (wild-type (WT) K-12-Pore; [6]): 0.781 µg/mL; MIC (wild-type (WT) K-12-Pore; [7]): 0.781 µg/mL; Minimum inhibitory concentration (MIC), ΔtolC (E. coli ΔtolC): 0.391 µg/mL; MIC [3, 8]: 1.56 µg/mL; MIC [3, 9]: 1.56 µg/mL; Fold change of MICs (E. coli EKO-35): 1 fold; MIC (E. coli EKO-35; [10]): 0.195 µg/mL; MIC (E. coli EKO-35; [11]): 0.195 µg/mL
COc1cc(Cc2cnc(N)nc2N)cc(OC)c1OC [trimethoprim] | 1 | 1 | 2 | 1 | 1 | 2 | 4 | 0.781 | 1 | 1 | 2 | 0.391 | 1 | 0 | 0.098 | 8 | 2 | 0.049 | 0.049 | 0.098 | MIC (EKO-35 araC::acrB): 1.56 µg/mL; MIC (wild-type (WT) K-12-Pore; read-out: Minimum inhibitory concentration (MIC), Pore K-12): 0.391 µg/mL; MIC (wild-type (WT) K-12-Pore; read-out: Minimum inhibitory concentration, K-12 (WT)-Pore): 0.391 µg/mL; Minimum inhibitory concentration (MIC), ΔtolC (E. coli ΔtolC): 0.098 µg/mL; MIC ([3]; BW25113, read-out: Minimum Inhibitory Concentration, K-12): 0.391 µg/mL; MIC ([3]; BW25113, read-out: Minimum inhibitory concentration (MIC), K-12): 0.391 µg/mL; Fold change of MICs (E. coli EKO-35): 1 fold; MIC (E. coli EKO-35; EKO35, read-out: Minimum Inhibitory Concentration, EKO-35): 0.195 µg/mL; MIC (E. coli EKO-35; EKO35, read-out: Minimum inhibitory concentration (MIC), EKO-35): 0.195 µg/mL
CN[C@H](CC(C)C)C(=O)N[C@H]1C(=O)N[C@@H](CC(N)=O)C(=O)N[C@H]2C(=O)N[C@H]3C(=O)N[C@H](C(=O)N[C@H](C(=O)O)c4cc(O)cc(O)c4-c4cc3ccc4O)[C@H](O)c3ccc(c(Cl)c3)Oc3cc2cc(c3O[C@@H]2O[C@H](CO)[C@@H](O)[C@H](O)[C@H]2O[C@H]2C[C@](C)(N)[C@H](O)[C@H](C)O2)Oc2ccc(cc2Cl)[C@H]1O [vancomycin] | 1 | 1 | 1 | 1 | 1 | 1 | 1 | 200 | 1 | 1 | 1 | 200 | 1 | 1 | 200 | 1 | 1 | 6.25 | 6.25 | 200 | MIC [1]: 6.25 µg/mL; MIC (EKO-35-Pore; [4]): 6.25 µg/mL; MIC (EKO-35-Pore; [5]): 6.25 µg/mL; MIC (EKO-35 araC::emrAB): 200 µg/mL; MIC (EKO-35 araC::mdtEF): 200 µg/mL; MIC (EKO-35 araC::mdtBC): 200 µg/mL; MIC (EKO-35 araC::macAB): 200 µg/mL; MIC (EKO-35 araC::emrKY): 200 µg/mL; MIC (EKO-35 araC::acrB): 200 µg/mL; MIC (EKO-35 araC::acrD): 200 µg/mL; MIC (wild-type (WT) K-12-Pore; [6]): 3.12 µg/mL; MIC (wild-type (WT) K-12-Pore; [7]): 3.12 µg/mL; Minimum inhibitory concentration (MIC), ΔtolC (E. coli ΔtolC): 200 µg/mL; MIC [3, 8]: 200 µg/mL; MIC [3, 9]: 200 µg/mL; Fold change of MICs (E. coli EKO-35): 1 fold; MIC (E. coli EKO-35; [10]): 200 µg/mL; MIC (E. coli EKO-35; [11]): 200 µg/mL
